This passage reports durable tumor eradication and fraction absorbed results from US12239719B2, “Fluorochemical targeted therapies” (MT RESEARCH, LLC, priority 2016, dated 2025).

Series [1] relates to metastatic pulmonary osteosarcoma. The series can be described thus: Aerosol treatment of dog with metastatic pulmonary osteosarcoma. It counts as in vivo. The note with it: control dogs (n=50), gemcitabine alone. The protocol:
A dog with extensive metastatic pulmonary osteosarcoma was treated with 60% perflubron emulsion (PFCE) containing 9 mg/mL gemcitabine (GCB) (PFCE-GCB=1000 mg GCB in 110 mL 60% perflubron emulsion). Aerosolized PFCE-GCB was delivered to the lungs of the dog twice weekly using an AeroTech™ II nebulizer (Biodex Medical Systems, Inc., Shirley, NY).
Treatment was discontinued at 6 months.
Control dogs (n=50) received gemcitabine alone.

The conditions of series [2]: oral (drink); cited from earlier work.

On to `Nc1ccn([C@@H]2O[C@H](CO)[C@@H](O)C2(F)F)c(=O)n1` [gemcitabine], for which, in series [1], the durable tumor eradication result was “tumors returned in all control cases”.
As for `COC(=O)c1ccc2c(c1)NC(=O)/C2=C(\Nc1ccc(N(C)C(=O)CN2CCN(C)CC2)cc1)c1ccccc1` [nintedanib], in series [2], the fraction absorbed is reported as 5%.
